In patent US12649737B2, “Compounds and uses thereof” (Foghorn Therapeutics Inc., priority 2020, dated 2026):

Columns and labels:
[1] = target: T1, BRM (Homo sapiens, UniProt P51531); test: ATPase catalytic activity assay of BRM (ADP-Glo); type: biochemical; details: 30 nM BRM, 400 μM ATP, 20 nM salmon sperm DNA, 1 hour at room temperature
T1 construct: made in house; host or cells: High Five insect cells
Method: (§1) Example 38. Assay for ATPase Catalytic Activity of BRM and BRG-1
(§2) The ADP-Glo™ kinase assay is performed in two steps once the reaction is complete.

[2] = target: T2, BRG-1 (Homo sapiens, UniProt P51532); test: ATPase catalytic activity assay of BRG-1 (ADP-Glo); type: biochemical; details: 30 nM BRG-1, 400 μM ATP, 20 nM salmon sperm DNA, 1 hour at room temperature; read-out: BRG1 ATPase: IC50
T2 construct: made in house; host or cells: High Five insect cells
T2 sequence (P51532 whole entry): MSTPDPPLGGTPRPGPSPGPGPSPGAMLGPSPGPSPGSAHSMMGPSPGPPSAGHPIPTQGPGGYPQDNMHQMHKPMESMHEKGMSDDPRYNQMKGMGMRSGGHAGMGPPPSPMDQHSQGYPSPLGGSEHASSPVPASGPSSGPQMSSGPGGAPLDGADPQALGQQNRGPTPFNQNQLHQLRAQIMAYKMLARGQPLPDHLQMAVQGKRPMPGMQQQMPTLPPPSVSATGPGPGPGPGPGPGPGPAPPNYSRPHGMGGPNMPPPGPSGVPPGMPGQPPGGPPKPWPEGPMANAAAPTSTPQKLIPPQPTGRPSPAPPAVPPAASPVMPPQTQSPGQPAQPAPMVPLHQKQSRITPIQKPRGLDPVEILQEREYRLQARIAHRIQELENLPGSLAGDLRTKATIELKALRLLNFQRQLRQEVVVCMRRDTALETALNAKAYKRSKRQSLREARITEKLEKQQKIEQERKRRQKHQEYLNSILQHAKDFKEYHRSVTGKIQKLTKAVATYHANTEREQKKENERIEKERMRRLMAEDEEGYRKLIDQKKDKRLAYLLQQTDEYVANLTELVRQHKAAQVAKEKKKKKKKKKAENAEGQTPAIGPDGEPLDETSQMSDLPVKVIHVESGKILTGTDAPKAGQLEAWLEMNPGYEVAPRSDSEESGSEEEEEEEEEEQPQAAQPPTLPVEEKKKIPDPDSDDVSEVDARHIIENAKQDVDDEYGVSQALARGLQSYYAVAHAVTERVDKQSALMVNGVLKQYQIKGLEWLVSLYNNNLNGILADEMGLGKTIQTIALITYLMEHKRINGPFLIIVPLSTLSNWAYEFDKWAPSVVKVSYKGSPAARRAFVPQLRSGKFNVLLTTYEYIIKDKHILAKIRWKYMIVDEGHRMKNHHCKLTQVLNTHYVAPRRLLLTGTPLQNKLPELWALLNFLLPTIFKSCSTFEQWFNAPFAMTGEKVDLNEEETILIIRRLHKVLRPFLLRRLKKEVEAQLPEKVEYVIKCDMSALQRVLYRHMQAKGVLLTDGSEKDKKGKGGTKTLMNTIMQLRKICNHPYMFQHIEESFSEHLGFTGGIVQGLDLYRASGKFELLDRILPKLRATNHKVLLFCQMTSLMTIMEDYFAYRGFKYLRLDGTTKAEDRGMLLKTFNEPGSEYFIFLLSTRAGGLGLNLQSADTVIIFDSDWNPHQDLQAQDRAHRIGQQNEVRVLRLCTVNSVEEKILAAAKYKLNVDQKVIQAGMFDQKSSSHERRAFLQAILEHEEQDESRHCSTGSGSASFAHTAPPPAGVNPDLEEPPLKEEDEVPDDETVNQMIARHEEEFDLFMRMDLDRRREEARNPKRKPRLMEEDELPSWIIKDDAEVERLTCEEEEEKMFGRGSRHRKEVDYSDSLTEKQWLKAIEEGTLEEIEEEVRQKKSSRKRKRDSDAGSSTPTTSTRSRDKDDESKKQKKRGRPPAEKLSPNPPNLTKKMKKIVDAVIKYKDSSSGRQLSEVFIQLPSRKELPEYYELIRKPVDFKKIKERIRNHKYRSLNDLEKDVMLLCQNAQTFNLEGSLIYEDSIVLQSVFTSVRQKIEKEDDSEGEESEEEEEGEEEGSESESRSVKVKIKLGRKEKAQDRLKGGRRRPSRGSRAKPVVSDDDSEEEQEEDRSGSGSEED
Method: as §1, §2

T1 sequence (P51531 whole entry): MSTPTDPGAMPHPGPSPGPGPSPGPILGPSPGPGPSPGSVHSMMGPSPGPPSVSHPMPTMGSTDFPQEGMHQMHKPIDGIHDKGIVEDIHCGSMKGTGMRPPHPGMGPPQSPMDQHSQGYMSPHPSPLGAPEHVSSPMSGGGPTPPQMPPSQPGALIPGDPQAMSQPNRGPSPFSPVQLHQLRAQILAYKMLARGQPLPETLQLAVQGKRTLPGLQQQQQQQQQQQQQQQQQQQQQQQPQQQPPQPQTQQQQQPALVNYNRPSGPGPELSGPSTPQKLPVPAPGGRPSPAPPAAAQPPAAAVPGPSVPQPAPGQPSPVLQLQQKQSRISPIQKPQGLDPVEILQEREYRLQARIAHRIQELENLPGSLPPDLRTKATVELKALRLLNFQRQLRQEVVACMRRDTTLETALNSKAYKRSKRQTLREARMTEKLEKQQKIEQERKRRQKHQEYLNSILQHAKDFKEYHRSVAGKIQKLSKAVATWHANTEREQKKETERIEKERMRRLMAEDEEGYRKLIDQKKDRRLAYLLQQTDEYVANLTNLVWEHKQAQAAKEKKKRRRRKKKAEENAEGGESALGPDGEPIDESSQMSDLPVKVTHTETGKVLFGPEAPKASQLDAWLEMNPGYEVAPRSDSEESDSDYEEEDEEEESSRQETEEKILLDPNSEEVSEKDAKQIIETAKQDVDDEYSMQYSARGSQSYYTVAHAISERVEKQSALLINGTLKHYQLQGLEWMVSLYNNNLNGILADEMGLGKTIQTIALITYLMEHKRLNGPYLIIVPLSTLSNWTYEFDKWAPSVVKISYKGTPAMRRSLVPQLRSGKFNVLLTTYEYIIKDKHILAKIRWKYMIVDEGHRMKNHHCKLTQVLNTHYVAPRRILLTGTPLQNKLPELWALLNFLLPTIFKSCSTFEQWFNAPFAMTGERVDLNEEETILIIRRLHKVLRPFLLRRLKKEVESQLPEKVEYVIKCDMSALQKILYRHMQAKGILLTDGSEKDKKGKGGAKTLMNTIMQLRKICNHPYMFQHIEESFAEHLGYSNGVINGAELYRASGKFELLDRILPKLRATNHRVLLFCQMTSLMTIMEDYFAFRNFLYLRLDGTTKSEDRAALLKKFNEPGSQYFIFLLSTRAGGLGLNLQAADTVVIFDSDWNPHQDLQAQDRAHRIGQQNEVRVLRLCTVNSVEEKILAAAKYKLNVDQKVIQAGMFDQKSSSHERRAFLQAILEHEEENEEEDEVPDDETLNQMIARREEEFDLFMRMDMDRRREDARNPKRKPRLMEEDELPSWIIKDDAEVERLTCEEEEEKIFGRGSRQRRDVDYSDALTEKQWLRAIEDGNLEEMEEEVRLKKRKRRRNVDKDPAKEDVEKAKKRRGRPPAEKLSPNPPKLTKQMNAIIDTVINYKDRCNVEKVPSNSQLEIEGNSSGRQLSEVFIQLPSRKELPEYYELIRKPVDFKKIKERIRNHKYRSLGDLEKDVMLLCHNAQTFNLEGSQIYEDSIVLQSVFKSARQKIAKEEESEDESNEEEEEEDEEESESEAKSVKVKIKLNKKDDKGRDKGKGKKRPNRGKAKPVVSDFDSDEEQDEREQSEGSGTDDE

IC50 [1]	IC50 [2]	SMILES
100 to 1000 nM	100 to 1000 nM	Nc1ccc(C(=O)NCc2nc3ccc(-c4cccc(-c5ccncc5)c4)nc3[nH]2)cc1 [Compound 1, 4-amino-N-((5-(3-(pyridin-4-yl)phenyl)-3H-imidazo[4,5-b]pyridin-2-yl)methyl)benzamide]
10 to 100 nM	10 to 100 nM	CS(=O)(=O)n1ccc(C(=O)NCc2nc3ccc(-c4cccc(-c5ccncc5)c4)nc3[nH]2)c1 [Compound 2]
10 to 100 nM	100 to 1000 nM	CC(C)S(=O)(=O)n1ccc(C(=O)NCc2nc3ccc(-c4cccc(-c5ccncc5)c4)nc3[nH]2)c1 [Compound 3]
10 to 100 nM	10 to 100 nM	C[C@H](NC(=O)c1ccn(S(C)(=O)=O)c1)c1nc2ccc(-c3cccc(-c4ccncc4)c3)nc2[nH]1 [Compound 4]
100 to 1000 nM	100 to 1000 nM	C[C@@H](NC(=O)c1ccn(S(C)(=O)=O)c1)c1nc2ccc(-c3cccc(-c4ccncc4)c3)nc2[nH]1 [Compound 5]
100 to 1000 nM	100 to 1000 nM	COc1ccc(-c2ccc3nc(CNC(=O)c4ccn(C(C)(C)C)c4)[nH]c3n2)cc1 [Compound 6]
100 to 1000 nM	100 to 1000 nM	CS(=O)(=O)n1ccc(C(=O)NCc2nc3ccc(-c4cccc(N5CCC5)c4)cc3[nH]2)c1 [Compound 7]
10 to 100 nM	100 to 1000 nM	CS(=O)(=O)n1ccc(C(=O)NCc2nc3ccc(-c4cccc(N5CCC(O)CC5)c4)cc3[nH]2)c1 [Compound 8, N-((6-(3-(4-hydroxypiperidin-1-yl)phenyl)-1H-benzo[d]imidazol-2-yl)methyl)-1-(methylsulfonyl)-1H-pyrrole-3-carboxamide]
10 to 100 nM	10 to 100 nM	CS(=O)(=O)n1ccc(C(=O)NCc2nc3ccc(-c4ccc(N5CCC5)cc4)nc3[nH]2)c1 [Compound 9]
10 to 100 nM	100 to 1000 nM	CS(=O)(=O)n1ccc(C(=O)NCc2nc3ccc(-c4cccc(N5CCC5)c4)nc3[nH]2)c1 [Compound 10]
10 to 100 nM	10 to 100 nM	C[C@@H]1CN(c2cccc(-c3ccc4nc(CNC(=O)c5ccn(S(C)(=O)=O)c5)[nH]c4c3)c2)C[C@H](C)O1 [Compound 11]
100 to 1000 nM	100 to 1000 nM	CS(=O)(=O)n1ccc(C(=O)NCc2nc3ccc(-c4cccc(N5CCC(O)CC5)c4)nc3[nH]2)c1 [Compound 12, N-((5-(3-(4-hydroxypiperidin-1-yl)phenyl)-3H-imidazo[4,5-b]pyridin-2-yl)methyl)-1-(methylsulfonyl)-1H-pyrrole-3-carboxamide]
10 to 100 nM	10 to 100 nM	C[C@@H]1CN(c2cccc(-c3ccc4nc(CNC(=O)c5ccn(S(C)(=O)=O)c5)[nH]c4n3)c2)C[C@H](C)O1 [Compound 13]
100 to 1000 nM	100 to 1000 nM	C[C@@H]1CN(c2ccc(-c3ccc4nc(CNC(=O)c5ccn(S(C)(=O)=O)c5)[nH]c4n3)cc2)C[C@H](C)O1 [Compound 14]
100 to 1000 nM	100 to 1000 nM	C[C@@H]1CN(c2cccc(-c3ccc4nc(CNC(=O)c5ccn(C(C)(C)C)c5)[nH]c4c3)c2)C[C@H](C)O1 [Compound 15]
100 to 1000 nM	100 to 1000 nM	COc1cccc(-c2ccc3nc(CNC(=O)c4ccn(C(C)(C)C)c4)[nH]c3c2)c1 [Compound 16]
10 to 100 nM	10 to 100 nM	COc1cccc(-c2ccc3nc(CNC(=O)c4cc(C)n(S(C)(=O)=O)c4)[nH]c3c2)c1 [Compound 17]
100 to 1000 nM	100 to 1000 nM	C[C@@H]1CN(c2cccc(-c3ccc4nc(CNC(=O)c5ccn(C6(C#N)CC6)c5)[nH]c4n3)c2)C[C@H](C)O1 [Compound 18]
100 to 1000 nM	100 to 1000 nM	C[C@@H]1CN(c2cccc(-c3ccc4nc(CNC(=O)c5ccn(C(C)(C)C)c5)[nH]c4n3)c2)C[C@H](C)O1 [Compound 19]
100 to 1000 nM	100 to 1000 nM	Cn1ccc2ccc(-c3ccc4nc(CNC(=O)c5ccn(C6(C)COC6)c5)[nH]c4c3)cc2c1=O [Compound 20, N-((6-(2-methyl-1-oxo-1,2-dihydroisoquinolin-7-yl)-1H-benzo[d]imidazol-2-yl)methyl)-1-(3-methyloxetan-3-yl)-1H-pyrrole-3-carboxamide]
100 to 1000 nM	100 to 1000 nM	COC(=O)N1CCC[C@@H](c2ccc3nc(CNC(=O)c4ccn(S(C)(=O)=O)c4)[nH]c3c2)C1 [Compound 21, (S)-methyl 3-(2-((1-(methylsulfonyl)-1H-pyrrole-3-carboxamido)methyl)-1H-benzo[d]imidazol-6-yl)piperidine-1-carboxylate]
100 to 1000 nM	> 1000 nM	COC(=O)N1CCC[C@H](c2ccc3nc(CNC(=O)c4ccn(S(C)(=O)=O)c4)[nH]c3c2)C1 [Compound 22, (R)-methyl 3-(2-((1-(methylsulfonyl)-1H-pyrrole-3-carboxamido)methyl)-1H-benzo[d]imidazol-6-yl)piperidine-1-carboxylate]
100 to 1000 nM	100 to 1000 nM	CS(=O)(=O)n1ccc(C(=O)NCc2nc3ccc(N4CCCC(C5CCC5)C4)nc3[nH]2)c1 (stereo not shown) [Compound 23]
100 to 1000 nM	100 to 1000 nM	CC(C)S(=O)(=O)n1ccc(C(=O)NCc2nc3ccc(-c4ccc5ccn(C)c(=O)c5c4)cc3[nH]2)c1 [Compound 24]
100 to 1000 nM	100 to 1000 nM	COC(=O)N1CCC[C@@H](c2ccc3nc(CNC(=O)c4ccn(S(C)(=O)=O)c4)[nH]c3n2)C1 [Compound 25]
100 to 1000 nM	> 1000 nM	COC(=O)N1CCC[C@H](c2ccc3nc(CNC(=O)c4ccn(S(C)(=O)=O)c4)[nH]c3n2)C1 [Compound 26]
100 to 1000 nM	100 to 1000 nM	CS(=O)(=O)n1ccc(C(=O)NCc2nc3ccc(-c4ccccc4)cc3[nH]2)c1 [Compound 27]

IC50 [1]	IC50 [2]	SMILES
10 to 100 nM	10 to 100 nM	CS(=O)(=O)n1ccc(C(=O)NCc2nc3ccc(-c4ccc(OC(F)(F)F)cc4)nc3[nH]2)c1 [Compound 28]
100 to 1000 nM	100 to 1000 nM	CS(=O)(=O)n1ccc(C(=O)NCc2nc3ccc(-c4cccc(OC(F)(F)F)c4)nc3[nH]2)c1 [Compound 29]
10 to 100 nM	100 to 1000 nM	CC(C)(C)n1ccc(C(=O)NCc2nc3ccc(-c4cc(Cl)cc(C#N)c4)cc3[nH]2)c1 [Compound 30]
10 to 100 nM	10 to 100 nM	CN1Cc2ccc(-c3ccc4nc(CNC(=O)c5ccn(C(C)(C)C)c5)[nH]c4c3)cc2C1=O [Compound 31]
10 to 100 nM	10 to 100 nM	Cn1ccc2cc(-c3ccc4nc(CNC(=O)c5ccn(C(C)(C)C)c5)[nH]c4c3)ccc21 [Compound 32]
10 to 100 nM	10 to 100 nM	Cn1cc2ccc(-c3ccc4nc(CNC(=O)c5ccn(C(C)(C)C)c5)[nH]c4c3)cc2n1 [Compound 33]
10 to 100 nM	10 to 100 nM	CC(C)(C)n1ccc(C(=O)NCc2nc3ccc(-c4ccc5ncccc5c4)cc3[nH]2)c1 [Compound 34]
10 to 100 nM	100 to 1000 nM	COc1ccc(-c2ccc3nc(CNC(=O)c4ccn(C(C)(C)C)c4)[nH]c3c2)cc1Cl [Compound 35]
100 to 1000 nM	100 to 1000 nM	Cn1ncc2ccc(-c3ccc4nc(CNC(=O)c5ccn(C(C)(C)C)c5)[nH]c4c3)cc21 [Compound 36]
100 to 1000 nM	100 to 1000 nM	CC(C)(C)n1ccc(C(=O)NCc2nc3ccc(-c4ccc(C5CC5)cc4)cc3[nH]2)c1 [Compound 37]
100 to 1000 nM	100 to 1000 nM	CC(C)(C)n1ccc(C(=O)NCc2nc3ccc(-c4cncc5ccccc45)cc3[nH]2)c1 [Compound 38]
100 to 1000 nM	100 to 1000 nM	CC(C)(C)n1ccc(C(=O)NCc2nc3ccc(-c4cccc(C#N)c4)cc3[nH]2)c1 [Compound 39]
100 to 1000 nM	100 to 1000 nM	CC(C)(C)n1ccc(C(=O)NCc2nc3ccc(-c4ccc5c(c4)CCO5)cc3[nH]2)c1 [Compound 40]
10 to 100 nM	10 to 100 nM	CC(C)(C)n1ccc(C(=O)NCc2nc3ccc(-c4ccc5cnccc5c4)cc3[nH]2)c1 [Compound 41]
10 to 100 nM	10 to 100 nM	CC(C)(C)n1ccc(C(=O)NCc2nc3ccc(-c4ccc5scnc5c4)cc3[nH]2)c1 [Compound 42]
100 to 1000 nM	100 to 1000 nM	CC(C)(C)n1ccc(C(=O)NCc2nc3ccc(-c4ccc(C#N)cc4)cc3[nH]2)c1 [Compound 43]
10 to 100 nM	10 to 100 nM	COc1ccc2cc(-c3ccc4nc(CNC(=O)c5ccn(C(C)(C)C)c5)[nH]c4c3)ccc2c1 [Compound 44]
10 to 100 nM	100 to 1000 nM	CC(C)(C)n1ccc(C(=O)NCc2nc3ccc(-c4ccc5c(c4)OCC5)cc3[nH]2)c1 [Compound 45]
10 to 100 nM	100 to 1000 nM	CC(C)(C)OCc1cccc(-c2ccc3nc(CNC(=O)c4ccn(C(C)(C)C)c4)[nH]c3c2)c1 [Compound 46]
10 to 100 nM	10 to 100 nM	CC(C)(C)n1ccc(C(=O)NCc2nc3ccc(-c4cnn5ccccc45)cc3[nH]2)c1 [Compound 47]
10 to 100 nM	10 to 100 nM	Cn1ncc2c(-c3ccc4nc(CNC(=O)c5ccn(C(C)(C)C)c5)[nH]c4c3)cccc21 [Compound 48]
10 to 100 nM	10 to 100 nM	Cc1nn(C)c2ccc(-c3ccc4nc(CNC(=O)c5ccn(C(C)(C)C)c5)[nH]c4c3)cc12 [Compound 49]
10 to 100 nM	100 to 1000 nM	Cc1nc2cc(-c3ccc4nc(CNC(=O)c5ccn(C(C)(C)C)c5)[nH]c4c3)ccc2s1 [Compound 50]
10 to 100 nM	100 to 1000 nM	CC(C)(C)n1ccc(C(=O)NCc2nc3ccc(-c4cccc5ccncc45)cc3[nH]2)c1 [Compound 51]
10 to 100 nM	10 to 100 nM	Cc1ccc2ccc(-c3ccc4nc(CNC(=O)c5ccn(C(C)(C)C)c5)[nH]c4c3)cc2n1 [Compound 52]
100 to 1000 nM	100 to 1000 nM	CC(C)(C)n1ccc(C(=O)NCc2nc3ccc(-c4ccc(CC#N)cc4)cc3[nH]2)c1 [Compound 53]
